One may read the IC50 as the concentration that gives 50% inhibition.

Where two headings read alike, the source gives them in different places. Bounds are passed on as bounds.

Here are results for 39 compounds from patent US8846909B2, “Bicyclic heteroaryl kinase inhibitors and methods of use” (University of Rochester, priority 2010, dated 2014).

This experiment deals with T1, MLK3 (Homo sapiens, UniProt Q16584).
T1 construct: purchased Dundee DU8313
As to the kind of experiment: Radiometric filter plate MLK3 assay. For MK3 IC50: 2 µM cold ATP (Km). The class given is biochemical. As to the method:
After a twenty minute incubation, the reactions were washed through filter plates and read on a scintillation counter. Results are shown in Table 10 below, in which +++ indicates ≦0.1 μM, ++ indicates >0.1 μM and ≦1 μM, and + indicates >1 μM.

T1 sequence (Q16584 whole entry): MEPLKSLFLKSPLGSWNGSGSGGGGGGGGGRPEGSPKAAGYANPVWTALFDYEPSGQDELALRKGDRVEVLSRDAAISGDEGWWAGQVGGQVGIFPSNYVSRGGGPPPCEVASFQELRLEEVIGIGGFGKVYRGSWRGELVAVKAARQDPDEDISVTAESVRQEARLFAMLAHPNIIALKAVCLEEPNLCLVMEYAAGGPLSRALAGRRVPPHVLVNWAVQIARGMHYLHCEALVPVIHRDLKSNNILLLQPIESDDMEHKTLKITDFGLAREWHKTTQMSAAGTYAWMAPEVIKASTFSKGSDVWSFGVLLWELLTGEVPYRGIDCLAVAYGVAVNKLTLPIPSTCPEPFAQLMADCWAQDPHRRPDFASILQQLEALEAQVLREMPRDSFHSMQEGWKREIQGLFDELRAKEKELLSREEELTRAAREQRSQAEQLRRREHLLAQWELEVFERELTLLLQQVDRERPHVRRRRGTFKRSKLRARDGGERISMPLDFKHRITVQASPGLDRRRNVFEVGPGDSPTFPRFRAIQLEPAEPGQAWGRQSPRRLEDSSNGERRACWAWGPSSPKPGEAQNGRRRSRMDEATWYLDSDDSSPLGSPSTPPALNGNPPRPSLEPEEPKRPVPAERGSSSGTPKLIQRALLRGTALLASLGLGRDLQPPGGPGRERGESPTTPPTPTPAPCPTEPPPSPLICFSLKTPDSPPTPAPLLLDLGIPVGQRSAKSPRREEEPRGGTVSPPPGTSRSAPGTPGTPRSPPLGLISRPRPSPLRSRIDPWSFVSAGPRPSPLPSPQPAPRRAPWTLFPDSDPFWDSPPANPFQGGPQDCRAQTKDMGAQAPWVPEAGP

`Cc1cc2cc(-n3c(=O)[nH]c4ncc(-c5cc(Cl)cc(Cl)c5)nc43)ccc2[nH]1` [Example 73, 6-(3,5-dichlorophenyl)-1-(2-methyl-1H-indol-5-yl)-1H-imidazo[4,5-b]pyrazin-2(3H)-one]: the IC50 (read-out: MK3 IC50) was over 1000 nM.
In the case of `CN1CCN(C(=O)c2ccc(-c3cnc4[nH]cc(-c5ccc6[nH]ccc6c5)c4c3)cc2)CC1` [Example 145, {4-[3-(1H-indol-5-yl)-1H-pyrrolo[2,3-b]pyridin-5-yl]-phenyl}-(4-methyl-piperazin-1-yl)-methanone], for the setting “read-out: MK3 IC50”, the half-maximal inhibitory concentration (IC50) lay within 100 to 1000 nM.
As to `CC(C)CC(=O)N1CCN(Cc2ccc(-c3cnc4[nH]cc(-c5ccc6[nH]ccc6c5)c4c3)cc2)CC1` [Example 194], the IC50 (read-out: MK3 IC50) is under 100 nM.
For `COc1ccc(-n2c(=O)[nH]c3ncc(-c4ccncc4)nc32)cc1` [Example 71, 1-(4-methoxyphenyl)-6-(pyridin-4-yl)-1H-imidazo[4,5-b]pyrazin-2(3H)-one], the IC50 (read-out: MK3 IC50) is over 1000 nM.
In the case of `CN1CCN(Cc2ccc(-c3cnc4[nH]cc(-c5ccc(F)cc5)c4c3)cc2)CC1` [Example 170], the concentration for half-maximal inhibition (IC50) (read-out: MK3 IC50) was over 1000 nM.
Turning to `Cc1cc(C)cc(-c2cnc3[nH]c(=O)n(-c4ccc5[nH]ccc5c4)c3n2)c1` [Example 46, 6-(3,5-dimethylphenyl)-1-(1H-indol-5-yl)-1H-imidazo[4,5-b]pyrazin-2(3H)-one], where the note is “read-out: MK3 IC50”, the concentration for half-maximal inhibition (IC50) is over 1000 nM.
In the case of `COc1cc(OC)cc(-c2cnc3[nH]c(=O)n(-c4ccc5[nH]ccc5c4)c3n2)c1` [Example 65, 6-(3,5-dimethoxyphenyl)-1-(1H-indol-5-yl)-1H-imidazo[4,5-b]pyrazin-2(3H)-one], the concentration for half-maximal inhibition (IC50) (read-out: MK3 IC50) is over 1000 nM.
As to `CN1CCN(Cc2ccc(-c3c[nH]c4ncc(-c5ccc6[nH]ccc6c5)cc34)cc2)CC1` [Example 163, 5-(1H-indol-5-yl)-3-[4-(4-methyl-piperazin-1-ylmethyl)-phenyl]-1H-pyrrolo[2,3-b]pyridine], the half-maximal inhibitory concentration (IC50) (read-out: MK3 IC50) was over 1000 nM.
For the compound `O=C(CC1CC1)N1CCN(Cc2ccc(-c3cnc4[nH]cc(-c5ccc6[nH]ccc6c5)c4c3)cc2)CC1` [Example 193], the half-inhibitory concentration (IC50) (read-out: MK3 IC50) is under 100 nM.
For the compound `CN1CCN(Cc2ccc(-c3cnc4[nH]cc(-c5ccc6ncccc6c5)c4c3)cc2)CC1` [Example 203], the IC50 (read-out: MK3 IC50) is under 100 nM.
Regarding `Nc1ncc(-c2cnc3[nH]cc(-c4cnc(N)nc4)c3c2)cn1` [Example 20, 5,5′-(1H-pyrrolo[2,3-b]pyridine-3,5-diyl)dipyrimidin-2-amine], for the setting “read-out: MK3 IC50”, the IC50 was over 1000 nM.
As to `O=c1[nH]c2ncc(-c3cc(Cl)cc(Cl)c3)nc2n1-c1ccc2[nH]ccc2c1` [Example 48, 6-(3,5-dichlorophenyl)-1-(1H-indol-5-yl)-1H-imidazo[4,5-b]pyrazin-2(3H)-one], the IC50 (read-out: MK3 IC50) is over 1000 nM.
As for `COc1ccc(-c2cnc3[nH]c(=O)n(C4CCCC4)c3n2)cc1OC` [Example 75, 1-cyclopentyl-6-(3,4-dimethoxyphenyl)-1H-imidazo[4,5-b]pyrazin-2(3H)-one], where the note is “read-out: MK3 IC50”, the IC50 is over 1000 nM.
Consider `O=c1[nH]c2ncc(-c3cc(F)cc(F)c3)nc2n1-c1ccc2[nH]ccc2c1` [Example 61, 6-(3,5-difluorophenyl)-1-(1H-indol-5-yl)-1H-imidazo[4,5-b]pyrazin-2(3H)-one], for which the IC50 (read-out: MK3 IC50) is over 1000 nM.
On to `COc1cc(-c2cnc3c(c2)C(=Cc2ccccc2)C(=O)N3)cc(OC)c1OC` [Example 130, 3-benzylidene-5-(3,4,5-trimethoxy-phenyl)-1,3-dihydro-pyrrolo[2,3-b]pyridin-2-one], for which the half-inhibitory concentration (IC50) (read-out: MK3 IC50) was over 1000 nM.
On the same count and under the same terms, next, `COc1cc(-c2cnc3c(c2)C(Cc2cccnc2)C(=O)N3)cc(OC)c1OC` (stereo not drawn) [Example 135, 3-pyridin-3-ylmethyl-5-(3,4,5-trimethoxy-phenyl)-1,3-dihydro-pyrrolo[2,3-b]pyridin-2-one]: over 1000 nM; `COc1cc(-c2cnc3[nH]c(=O)n(-c4ccc5[nH]ccc5c4)c3c2)cc(OC)c1OC` [Example 124, 1-(1H-indol-5-yl)-6-(3,4,5-trimethoxyphenyl)-1H-imidazo[4,5-b]pyridin-2(3H)-one]: 100 to 1000 nM.
On the same count and under the same terms, next, `COc1ccc(-c2cnc3[nH]c(=O)n(-c4ccc5[nH]ncc5c4)c3n2)cc1OC` [Example 87, 6-(3,4-dimethoxyphenyl)-1-(1H-indazol-5-yl)-1H-imidazo[4,5-b]pyrazin-2(3H)-one]: over 1000 nM; `COc1ccc(-n2c(=O)[nH]c3ncc(-c4ccc(O)cc4)nc32)cc1` [Example 70, 6-(4-hydroxyphenyl)-1-(4-methoxyphenyl)-1H-imidazo[4,5-b]pyrazin-2(3H)-one]: over 1000 nM.
For `COc1cc(-c2cnc3[nH]c(=O)n(-c4ccc(N5CCOCC5)nc4)c3n2)cc(OC)c1OC` [Example 109, 1-(6-morpholinopyridin-3-yl)-6-(3,4,5-trimethoxyphenyl)-1H-imidazo[4,5-b]pyrazin-2(3H)-one], the IC50 (read-out: MK3 IC50) is over 1000 nM.
On the same count and under the same terms, next, `CC(C)(C)CC(=O)N1CCN(Cc2ccc(-c3cnc4[nH]cc(-c5ccc6[nH]ccc6c5)c4c3)cc2)CC1` [Example 182]: under 100 nM; `O=c1[nH]c2ncc(-c3ccncc3)nc2n1-c1ccc2[nH]ncc2c1` [Example 88, 1-(1H-indazol-5-yl)-6-(pyridin-4-yl)-1H-imidazo[4,5-b]pyrazin-2(3H)-one]: over 1000 nM.
As to `COc1cc(-c2cnc3[nH]c(=O)n(-c4ccc5cc[nH]c5c4)c3n2)cc(OC)c1OC` [Example 113, 1-(1H-indol-6-yl)-6-(3,4,5-trimethoxyphenyl)-1H-imidazo[4,5-b]pyrazin-2(3H)-one], under “read-out: MK3 IC50”, the IC50 is under 100 nM.
Consider `c1ccc(CN2CCN(Cc3ccc(-c4cnc5[nH]cc(-c6ccc7[nH]ccc7c6)c5c4)cc3)CC2)cc1` [Example 178], for which the IC50 (read-out: MK3 IC50) fell in the range of 100 to 1000 nM.
The same measure, in the same setting: next, `COc1cc(-c2cnc3[nH]c(=O)n(-c4cnc5[nH]ccc5c4)c3n2)cc(OC)c1OC` [Example 112, 1-(1H-pyrrolo[2,3-b]pyridin-5-yl)-6-(3,4,5-trimethoxyphenyl)-1H-imidazo[4,5-b]pyrazin-2(3H)-one]: under 100 nM.
For the compound `CC(C)OC(=O)N1CCN(Cc2ccc(-c3cnc4[nH]cc(-c5ccc6[nH]ccc6c5)c4c3)cc2)CC1` [Example 185], the concentration for half-maximal inhibition (IC50) fell in the range of 100 to 1000 nM.
As for `CN1CCN(Cc2ccc(-c3cnc4[nH]cc(-c5ccc(C(N)=O)cc5)c4c3)cc2)CC1=O` [Example 158, 4-{5-[4-(4-methyl-3-oxo-piperazin-1-ylmethyl)-phenyl]-1H-pyrrolo[2,3-b]pyridin-3-yl}-benzamide], the IC50 (read-out: MK3 IC50) was under 100 nM.
Take `COCC(=O)N1CCN(Cc2ccc(-c3cnc4[nH]cc(-c5ccc6[nH]ccc6c5)c4c3)cc2)CC1` [Example 188]: the IC50 (read-out: MK3 IC50) is under 100 nM.
In the case of `CS(=O)(=O)N1CCN(Cc2ccc(-c3cnc4[nH]cc(-c5ccc6[nH]ccc6c5)c4c3)cc2)CC1` [Example 190], the half-maximal inhibitory concentration (IC50) (read-out: MK3 IC50) is under 100 nM.
Same read-out and setting: as for `CN(C)Cc1ccc(-c2cnc3[nH]cc(-c4ccc5[nH]ccc5c4)c3c2)cc1` [Example 33, 1-(4-(3-(1H-indol-5-yl)-1H-pyrrolo[2,3-b]pyridin-5-yl)phenyl)-N,N-dimethylmethanamine], the figure is under 100 nM; as for `CN1CCN(Cc2ccc(-c3cnc4[nH]cc(-c5ccc(C(F)(F)F)cc5)c4c3)cc2)CC1` [Example 171], over 1000 nM.
Consider `CC1CN(Cc2ccc(-c3cnc4[nH]cc(-c5ccc6[nH]ccc6c5)c4c3)cc2)CCN1C` (stereo not drawn) [Example 198, 5-(4-((3,4-dimethylpiperazin-1-yl)methyl)phenyl)-3-(1H-indol-5-yl)-1H-pyrrolo[2,3-b]pyridine], for which the IC50 (read-out: MK3 IC50) is under 100 nM.
For the compound `COc1cc(-c2cnc3[nH]cc(-c4ccc(N(C)C)nc4)c3c2)cc(OC)c1OC` [Example 19, N,N-dimethyl-5-(5-(3,4,5-trimethoxyphenyl)-1H-pyrrolo[2,3-b]pyridin-3-yl)pyridin-2-amine], where the note is “read-out: MK3 IC50”, the IC50 was under 100 nM.
Regarding `COc1cc(-c2cnc3c(c2)C(CC2CC2)C(=O)N3)cc(OC)c1OC` (stereo not drawn) [Example 123, 3-(cyclopropylmethyl)-5-(3,4,5-trimethoxyphenyl)-1H-pyrrolo[2,3-b]pyridin-2(3H)-one], the IC50 (read-out: MK3 IC50) is 100 to 1000 nM.
Still for that read-out and setting: as for `COc1cc(-c2cnc3[nH]c(=O)n(-c4ccc5[nH]cnc5c4)c3n2)cc(OC)c1OC` [Example 102, 1-(1H-benzo[d]imidazol-5-yl)-6-(3,4,5-trimethoxyphenyl)-1H-imidazo[4,5-b]pyrazin-2(3H)-one], the figure is under 100 nM; as for `COc1cc(-c2cnc3[nH]c(=O)n(-c4ccc5[nH]ccc5c4)c3n2)ccc1OCCN1CCOCC1` [Example 57, 1-(1H-indol-5-yl)-6-(3-methoxy-4-(2-morpholinoethoxy)phenyl)-1H-imidazo[4,5-b]pyrazin-2(3H)-one], under 100 nM; as for `COc1cc(-c2cnc3ncn(-c4ccc5[nH]ccc5c4)c3n2)cc(OC)c1OC` [Example 126, 1-(1H-indol-5-yl)-6-(3,4,5-trimethoxyphenyl)-1H-imidazo[4,5-b]pyrazine], over 1000 nM.
On to `CC(C)(C)OC(=O)N1CCN(C(=O)c2cccc(-c3cnc4[nH]cc(-c5ccc(C(N)=O)cc5)c4c3)c2)CC1` [Example 151, 4-{3-[3-(4-carbamoyl-phenyl)-1H-pyrrolo[2,3-b]pyridin-5-yl]-benzoyl}-piperazine-1-carboxylic acid tert-butyl ester], for which the 50% inhibitory concentration (IC50) (read-out: MK3 IC50) is under 100 nM.
Still for that read-out and setting: next, `COc1ccc(-c2cnc3[nH]cc(-c4ccc5[nH]ccc5c4)c3n2)cc1OC` [Example 37, 2-(3,4-dimethoxyphenyl)-7-(1H-indol-5-yl)-5H-pyrrolo[3,2-b]pyrazine]: under 100 nM.
